Results taken from the kinase profiling compilation of Christmann-Franck et al. (2016).

Columns and labels:
Experiment in all cases: radiometric filter-binding kinase assay
CHEK1 (human) = CHEK1 (human) (UniProt O14757)
PRKCA (human) = PRKCA (human) (UniProt P17252)
STK3 (human) = STK3 (human) (UniProt Q13188)
PKN2 (human) = PKN2 (human) (UniProt Q16513)
MKNK2 (human) = MKNK2 (human) (UniProt Q9HBH9)
PRKACA (human) = PRKACA (human) (UniProt P17612)
[1] = tested on: AKT2 (human), P31751 [S474D]
EPHB4 (human) = EPHB4 (human) (UniProt P54760)
MAPKAPK2 (human) = MAPKAPK2 (human) (UniProt P49137)
GCK (human) = GCK (human) (UniProt Q12851)
MAPK1 (human) = MAPK1 (human) (UniProt P28482)
PRKAA1 or PRKAA2 (rat) = conditions: accession and sequence are those of the human protein
YES1 (human) = YES1 (human) (UniProt P07947)
IKBKB (human) = IKBKB (human) (UniProt O14920)
CAMKK2 (human) = CAMKK2 (human) (UniProt Q96RR4)
MINK1 (human) = MINK1 (human) (UniProt Q8N4C8)
MAPK10 (human) = MAPK10 (human) (UniProt P53779)
MAP3K1 (human) = MAP3K1 (human) (UniProt Q13233)
PHKG1 (human) = PHKG1 (human) (UniProt Q16816)
MARK2 (human) = MARK2 (human) (UniProt Q7KZI7)
NTRK1 (human) = NTRK1 (human) (UniProt P04629)
IGF1R (human) = IGF1R (human) (UniProt P08069)
RPS6KA1 KD1 KD2 (human) = RPS6KA1 KD1 KD2 (human) (UniProt Q15418)
MAPK15 (human) = MAPK15 (human) (UniProt Q8TD08)
MAP3K5 (human) = MAP3K5 (human) (UniProt Q99683)
AURKB (human) = AURKB (human) (UniProt Q96GD4)
MAPK9 (human) = MAPK9 (human) (UniProt P45984)
[2] = biological target: STK11 CAB39 STRADA (human) (UniProt Q9Y376+Q7RTN6+Q15831)
PIM2 (human) = PIM2 (human) (UniProt Q9P1W9)
MKNK1 (human) = MKNK1 (human) (UniProt Q9BUB5)
SRC (human) = SRC (human) (UniProt P12931)
MAP2K1 (human) = MAP2K1 (human) (UniProt Q02750)
MAPK3 (human) = MAPK3 (human) (UniProt P27361)
CHEK2 (human) = CHEK2 (human) (UniProt O96017)
NEK2 (human) = NEK2 (human) (UniProt P51955)
Sequence of NEK2 (human) (P51955 whole entry, looked up): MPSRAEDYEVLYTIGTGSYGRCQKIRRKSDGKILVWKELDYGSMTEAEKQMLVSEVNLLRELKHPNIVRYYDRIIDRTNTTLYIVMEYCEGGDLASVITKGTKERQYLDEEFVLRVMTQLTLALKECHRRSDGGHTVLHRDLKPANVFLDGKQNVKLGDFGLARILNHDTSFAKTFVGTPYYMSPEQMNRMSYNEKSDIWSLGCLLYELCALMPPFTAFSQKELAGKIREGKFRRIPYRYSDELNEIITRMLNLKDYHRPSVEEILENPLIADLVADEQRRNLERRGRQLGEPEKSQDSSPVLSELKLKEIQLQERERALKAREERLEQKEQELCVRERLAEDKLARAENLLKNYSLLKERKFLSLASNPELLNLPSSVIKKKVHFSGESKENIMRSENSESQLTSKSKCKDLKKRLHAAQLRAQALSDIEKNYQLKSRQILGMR

Sequence of STK11 CAB39 STRADA (human) (Q15831 whole entry, looked up): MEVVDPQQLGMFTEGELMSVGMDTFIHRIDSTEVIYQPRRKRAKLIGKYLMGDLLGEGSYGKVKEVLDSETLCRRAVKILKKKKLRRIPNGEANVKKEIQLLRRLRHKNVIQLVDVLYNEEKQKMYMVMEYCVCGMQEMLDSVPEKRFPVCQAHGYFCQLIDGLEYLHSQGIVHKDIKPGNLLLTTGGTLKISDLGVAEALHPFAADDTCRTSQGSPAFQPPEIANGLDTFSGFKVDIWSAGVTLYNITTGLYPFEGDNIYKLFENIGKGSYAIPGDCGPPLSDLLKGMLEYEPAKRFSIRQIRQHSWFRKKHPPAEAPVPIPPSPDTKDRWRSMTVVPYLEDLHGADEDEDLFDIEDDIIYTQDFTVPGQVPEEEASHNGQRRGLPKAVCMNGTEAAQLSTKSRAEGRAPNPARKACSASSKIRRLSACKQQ
Sequence of STK11 CAB39 STRADA (human) (Q7RTN6 whole entry, looked up): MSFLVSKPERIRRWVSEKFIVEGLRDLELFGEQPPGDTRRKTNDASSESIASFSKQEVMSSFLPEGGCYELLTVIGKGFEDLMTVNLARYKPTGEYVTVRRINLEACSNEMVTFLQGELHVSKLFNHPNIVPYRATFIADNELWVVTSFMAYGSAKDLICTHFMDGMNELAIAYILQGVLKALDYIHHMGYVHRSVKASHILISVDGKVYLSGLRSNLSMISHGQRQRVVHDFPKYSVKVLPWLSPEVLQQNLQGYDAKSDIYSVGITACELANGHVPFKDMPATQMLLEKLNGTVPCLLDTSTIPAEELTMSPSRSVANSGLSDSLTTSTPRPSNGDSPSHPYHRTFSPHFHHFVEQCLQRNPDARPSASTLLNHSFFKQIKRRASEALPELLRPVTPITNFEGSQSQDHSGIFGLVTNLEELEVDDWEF
Sequence of STK11 CAB39 STRADA (human) (Q9Y376 whole entry, looked up): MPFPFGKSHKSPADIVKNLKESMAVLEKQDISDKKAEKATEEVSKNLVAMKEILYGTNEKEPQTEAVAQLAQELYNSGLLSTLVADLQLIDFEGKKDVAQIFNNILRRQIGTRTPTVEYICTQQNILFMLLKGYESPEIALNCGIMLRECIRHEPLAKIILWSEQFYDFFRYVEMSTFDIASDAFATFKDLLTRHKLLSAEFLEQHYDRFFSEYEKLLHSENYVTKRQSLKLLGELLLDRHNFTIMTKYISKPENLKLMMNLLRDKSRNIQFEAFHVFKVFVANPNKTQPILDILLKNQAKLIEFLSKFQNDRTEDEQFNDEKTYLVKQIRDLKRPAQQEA
Sequence of GCK (human) (Q12851 whole entry, looked up): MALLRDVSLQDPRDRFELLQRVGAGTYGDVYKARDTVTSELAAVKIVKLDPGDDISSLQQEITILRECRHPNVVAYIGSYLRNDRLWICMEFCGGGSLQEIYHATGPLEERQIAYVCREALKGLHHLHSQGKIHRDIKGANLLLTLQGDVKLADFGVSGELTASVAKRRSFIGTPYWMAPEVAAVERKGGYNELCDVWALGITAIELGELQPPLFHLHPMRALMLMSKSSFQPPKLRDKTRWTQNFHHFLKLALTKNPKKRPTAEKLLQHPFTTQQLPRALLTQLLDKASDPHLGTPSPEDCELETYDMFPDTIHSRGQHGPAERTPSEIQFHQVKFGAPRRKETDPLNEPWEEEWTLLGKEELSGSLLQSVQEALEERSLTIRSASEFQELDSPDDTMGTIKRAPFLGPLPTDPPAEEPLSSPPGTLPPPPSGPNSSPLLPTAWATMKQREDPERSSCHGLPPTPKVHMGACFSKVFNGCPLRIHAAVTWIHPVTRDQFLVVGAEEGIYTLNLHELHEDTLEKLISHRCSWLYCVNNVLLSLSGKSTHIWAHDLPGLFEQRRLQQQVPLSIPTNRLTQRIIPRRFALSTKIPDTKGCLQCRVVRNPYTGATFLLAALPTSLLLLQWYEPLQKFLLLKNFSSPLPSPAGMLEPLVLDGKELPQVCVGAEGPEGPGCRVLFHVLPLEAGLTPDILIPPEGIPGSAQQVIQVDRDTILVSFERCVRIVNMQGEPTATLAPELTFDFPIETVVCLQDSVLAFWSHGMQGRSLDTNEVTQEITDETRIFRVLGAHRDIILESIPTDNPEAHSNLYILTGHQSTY
Sequence of AURKB (human) (Q96GD4 whole entry, looked up): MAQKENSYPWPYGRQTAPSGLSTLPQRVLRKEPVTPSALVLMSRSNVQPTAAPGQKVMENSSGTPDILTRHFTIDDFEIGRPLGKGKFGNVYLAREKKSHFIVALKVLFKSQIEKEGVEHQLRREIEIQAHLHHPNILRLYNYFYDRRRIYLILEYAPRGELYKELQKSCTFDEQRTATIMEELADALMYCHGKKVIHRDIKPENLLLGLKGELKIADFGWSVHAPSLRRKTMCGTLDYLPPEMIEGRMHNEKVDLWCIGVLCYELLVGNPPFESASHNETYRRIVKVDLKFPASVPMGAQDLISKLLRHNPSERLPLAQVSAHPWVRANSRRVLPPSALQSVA
Sequence of RPS6KA1 KD1 KD2 (human) (Q15418 whole entry, looked up): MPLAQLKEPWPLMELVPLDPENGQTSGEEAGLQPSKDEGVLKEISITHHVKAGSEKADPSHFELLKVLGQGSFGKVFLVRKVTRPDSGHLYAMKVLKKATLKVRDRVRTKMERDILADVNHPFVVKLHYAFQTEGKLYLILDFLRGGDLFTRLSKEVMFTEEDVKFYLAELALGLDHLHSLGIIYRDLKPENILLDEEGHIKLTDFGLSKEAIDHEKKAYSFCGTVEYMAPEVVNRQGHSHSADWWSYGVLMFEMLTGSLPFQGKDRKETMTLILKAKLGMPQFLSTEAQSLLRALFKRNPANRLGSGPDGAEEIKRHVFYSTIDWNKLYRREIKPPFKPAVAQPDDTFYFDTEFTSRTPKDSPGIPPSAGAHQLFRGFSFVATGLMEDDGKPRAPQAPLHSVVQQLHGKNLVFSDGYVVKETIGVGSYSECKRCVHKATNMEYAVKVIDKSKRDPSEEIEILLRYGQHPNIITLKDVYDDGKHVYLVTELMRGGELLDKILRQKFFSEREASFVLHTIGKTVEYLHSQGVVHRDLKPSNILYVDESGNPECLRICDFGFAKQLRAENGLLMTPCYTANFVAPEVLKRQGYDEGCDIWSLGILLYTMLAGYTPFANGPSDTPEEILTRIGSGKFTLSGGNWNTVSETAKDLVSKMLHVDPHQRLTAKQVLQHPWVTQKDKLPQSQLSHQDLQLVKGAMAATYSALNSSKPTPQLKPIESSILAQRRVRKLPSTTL
Sequence of STK3 (human) (Q13188 whole entry, looked up): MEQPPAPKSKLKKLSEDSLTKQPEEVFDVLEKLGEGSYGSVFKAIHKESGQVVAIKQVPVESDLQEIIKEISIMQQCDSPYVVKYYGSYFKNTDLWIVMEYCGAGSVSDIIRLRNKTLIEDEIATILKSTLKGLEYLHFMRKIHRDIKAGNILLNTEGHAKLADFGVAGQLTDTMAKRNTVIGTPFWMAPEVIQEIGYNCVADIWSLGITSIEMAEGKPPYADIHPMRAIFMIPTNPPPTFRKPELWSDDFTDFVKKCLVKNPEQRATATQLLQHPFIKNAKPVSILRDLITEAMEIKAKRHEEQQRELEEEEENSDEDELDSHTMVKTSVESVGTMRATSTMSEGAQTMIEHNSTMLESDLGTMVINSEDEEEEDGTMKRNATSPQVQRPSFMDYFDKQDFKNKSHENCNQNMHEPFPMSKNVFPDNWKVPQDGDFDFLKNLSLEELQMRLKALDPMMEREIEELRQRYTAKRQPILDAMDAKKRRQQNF
Sequence of MAPKAPK2 (human) (P49137 whole entry, looked up): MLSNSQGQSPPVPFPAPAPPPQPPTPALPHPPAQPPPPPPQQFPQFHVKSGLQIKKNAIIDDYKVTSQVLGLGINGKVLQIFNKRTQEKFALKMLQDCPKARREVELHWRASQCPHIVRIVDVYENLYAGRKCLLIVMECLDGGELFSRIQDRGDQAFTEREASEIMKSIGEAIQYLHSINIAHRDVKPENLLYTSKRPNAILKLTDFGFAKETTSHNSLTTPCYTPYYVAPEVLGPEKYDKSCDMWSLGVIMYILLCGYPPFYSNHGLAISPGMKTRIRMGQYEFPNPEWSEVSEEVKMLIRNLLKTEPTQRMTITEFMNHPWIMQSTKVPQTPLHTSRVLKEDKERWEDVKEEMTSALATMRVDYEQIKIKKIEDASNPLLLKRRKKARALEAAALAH
Sequence of CHEK1 (human) (O14757 whole entry, looked up): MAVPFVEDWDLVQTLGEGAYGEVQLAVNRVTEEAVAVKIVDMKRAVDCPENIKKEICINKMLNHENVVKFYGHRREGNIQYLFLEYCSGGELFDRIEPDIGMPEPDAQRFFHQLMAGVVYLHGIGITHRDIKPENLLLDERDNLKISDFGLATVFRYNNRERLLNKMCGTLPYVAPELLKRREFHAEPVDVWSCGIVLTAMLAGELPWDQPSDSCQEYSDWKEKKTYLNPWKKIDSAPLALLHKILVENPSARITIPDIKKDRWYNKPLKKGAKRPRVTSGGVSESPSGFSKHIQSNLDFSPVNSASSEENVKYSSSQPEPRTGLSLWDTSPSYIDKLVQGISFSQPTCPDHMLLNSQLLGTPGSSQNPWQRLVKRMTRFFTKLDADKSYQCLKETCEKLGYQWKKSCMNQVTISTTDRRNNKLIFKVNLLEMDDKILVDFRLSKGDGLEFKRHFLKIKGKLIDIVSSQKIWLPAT

`CNC(=O)C1[C@H]2O[C@@](C)([C@@H]1N)n1c3ccccc3c3c4c(c5c6ccccc6n2c5c31)C(=O)NC4` (some centres not stated) showed a residual activity (CHEK1 (human); compound 0.01 µM) of 11%, a residual activity (CHEK1 (human); compound 0.1 µM) of 4% and a residual activity (CHEK1 (human); compound 1.0 µM) of 3%. It also gave a residual activity (PRKCA (human); compound 0.01 µM) of 79%, a residual activity (PRKCA (human); compound 0.1 µM) of 44% and a residual activity (STK3 (human); compound 0.01 µM) of 18%. It also gave a residual activity (STK3 (human); compound 0.1 µM) of 16%, a residual activity (STK3 (human); compound 1.0 µM) of 9% and a residual activity (PKN2 (human); compound 0.01 µM) of 21%. The residual activity (PKN2 (human); compound 0.1 µM) was 8%, the residual activity (PKN2 (human); compound 1.0 µM) was 6% and the residual activity (MKNK2 (human); compound 0.01 µM) was 93%. The residual activity (MKNK2 (human); compound 0.1 µM) was 12%, the residual activity (MKNK2 (human); compound 1.0 µM) was 10% and the residual activity (PRKACA (human); compound 0.01 µM) was 29%. The residual activity (PRKACA (human); compound 0.1 µM) was 5%, the residual activity (PRKACA (human); compound 1.0 µM) was 2% and the residual activity ([1]; compound 0.01 µM) was 109%. For the same compound, the residual activity ([1]; compound 0.1 µM) was 51%, the residual activity ([1]; compound 1.0 µM) was 8% and the residual activity (EPHB4 (human); compound 0.01 µM) was 102%. It also gave a residual activity (EPHB4 (human); compound 0.1 µM) of 60%, a residual activity (EPHB4 (human); compound 1.0 µM) of 8% and a residual activity (MAPKAPK2 (human); compound 0.01 µM) of 19%. For the same compound, the residual activity (MAPKAPK2 (human); compound 0.1 µM) was 0%, the residual activity (MAPKAPK2 (human); compound 1.0 µM) was -1% and the residual activity (GCK (human); compound 0.01 µM) was 6%. The residual activity (GCK (human); compound 0.1 µM) was 4%, the residual activity (GCK (human); compound 1.0 µM) was 2% and the residual activity (MAPK1 (human); compound 0.01 µM) was 22%. The residual activity (MAPK1 (human); compound 0.1 µM) was 6%, the residual activity (MAPK1 (human); compound 1.0 µM) was 5% and the residual activity (PRKAA1 or PRKAA2 (rat); compound 0.01 µM) was 6%. For the same compound, the residual activity (PRKAA1 or PRKAA2 (rat); compound 0.1 µM) was 2%, the residual activity (PRKAA1 or PRKAA2 (rat); compound 1.0 µM) was 1% and the residual activity (YES1 (human); compound 0.01 µM) was 76%. It also gave a residual activity (YES1 (human); compound 0.1 µM) of 20%, a residual activity (YES1 (human); compound 1.0 µM) of 2% and a residual activity (IKBKB (human); compound 0.01 µM) of 75%. For the same compound, the residual activity (IKBKB (human); compound 0.1 µM) was 24%, the residual activity (IKBKB (human); compound 1.0 µM) was 6% and the residual activity (CAMKK2 (human); compound 0.01 µM) was 64%. For the same compound, the residual activity (CAMKK2 (human); compound 0.1 µM) was 14%, the residual activity (CAMKK2 (human); compound 1.0 µM) was 11% and the residual activity (MINK1 (human); compound 0.01 µM) was 4%. It also gave a residual activity (MINK1 (human); compound 0.1 µM) of 3%, a residual activity (MINK1 (human); compound 1.0 µM) of 2% and a residual activity (MAPK10 (human); compound 0.01 µM) of 65%. For the same compound, the residual activity (MAPK10 (human); compound 0.1 µM) was 30%, the residual activity (MAPK10 (human); compound 1.0 µM) was 26% and the residual activity (MAP3K1 (human); compound 0.01 µM) was 97%. The residual activity (MAP3K1 (human); compound 0.1 µM) was 78%, the residual activity (MAP3K1 (human); compound 1.0 µM) was 23% and the residual activity (PHKG1 (human); compound 0.1 µM) was 1%. For the same compound, the residual activity (PHKG1 (human); compound 1.0 µM) was 1%, the residual activity (MARK2 (human); compound 0.01 µM) was 11% and the residual activity (MARK2 (human); compound 0.1 µM) was 5%. The residual activity (MARK2 (human); compound 1.0 µM) was 4%, the residual activity (NTRK1 (human); compound 0.01 µM) was 5% and the residual activity (NTRK1 (human); compound 0.1 µM) was 3%. For the same compound, the residual activity (NTRK1 (human); compound 1.0 µM) was 2%, the residual activity (IGF1R (human); compound 0.01 µM) was 87% and the residual activity (IGF1R (human); compound 0.1 µM) was 64%. For the same compound, the residual activity (IGF1R (human); compound 1.0 µM) was 3%, the residual activity (RPS6KA1 KD1 KD2 (human); compound 0.01 µM) was 9% and the residual activity (RPS6KA1 KD1 KD2 (human); compound 0.1 µM) was 3%. It also gave a residual activity (RPS6KA1 KD1 KD2 (human); compound 1.0 µM) of 1%, a residual activity (MAPK15 (human); compound 0.01 µM) of 48% and a residual activity (MAPK15 (human); compound 0.1 µM) of 8%. For the same compound, the residual activity (MAPK15 (human); compound 1.0 µM) was 11%, the residual activity (MAP3K5 (human); compound 0.01 µM) was 113% and the residual activity (MAP3K5 (human); compound 0.1 µM) was 15%. The residual activity (MAP3K5 (human); compound 1.0 µM) was 2%, the residual activity (AURKB (human); compound 0.01 µM) was 49% and the residual activity (AURKB (human); compound 0.1 µM) was 46%. It also gave a residual activity (AURKB (human); compound 1.0 µM) of 39%, a residual activity (MAPK9 (human); compound 0.01 µM) of 101% and a residual activity (MAPK9 (human); compound 0.1 µM) of 98%. For the same compound, the residual activity (MAPK9 (human); compound 1.0 µM) was 4%, the residual activity ([2]; compound 0.01 µM) was 103% and the residual activity ([2]; compound 0.1 µM) was 50%. For the same compound, the residual activity ([2]; compound 1.0 µM) was 35%, the residual activity (PIM2 (human); compound 0.01 µM) was 93% and the residual activity (PIM2 (human); compound 0.1 µM) was 30%. For the same compound, the residual activity (PIM2 (human); compound 1.0 µM) was 4%, the residual activity (MKNK1 (human); compound 0.01 µM) was 61% and the residual activity (MKNK1 (human); compound 0.1 µM) was 16%. For the same compound, the residual activity (MKNK1 (human); compound 1.0 µM) was 9%, the residual activity (SRC (human); compound 0.01 µM) was 78% and the residual activity (SRC (human); compound 0.1 µM) was 19%. The residual activity (SRC (human); compound 1.0 µM) was 6%, the residual activity (MAP2K1 (human); compound 0.01 µM) was 9% and the residual activity (MAP2K1 (human); compound 0.1 µM) was 0%. It also gave a residual activity (MAP2K1 (human); compound 1.0 µM) of 0%, a residual activity (MAPK3 (human); compound 0.1 µM) of 4% and a residual activity (MAPK3 (human); compound 1.0 µM) of 2%. It also gave a residual activity (CHEK2 (human); compound 0.01 µM) of 24%, a residual activity (CHEK2 (human); compound 0.1 µM) of 5% and a residual activity (CHEK2 (human); compound 1.0 µM) of 2%. It also gave a residual activity (NEK2 (human); compound 0.01 µM) of 105%, a residual activity (NEK2 (human); compound 0.1 µM) of 105% and a residual activity (NEK2 (human); compound 1.0 µM) of 66%.
